{"source": "paper PMC5218480", "about": "(PLoS ONE, 2017)", "test_system": "MV-4-11 cells", "experiment": "Gene expression microarray analysis (Affymetrix PrimeView) and GSEA", "format": "cell-based, human", "design": "RFU PODN (11730768_x_at) / Fold change /veh PODN (11730768_x_at) / RFU LINC00158 (11744669_a_at) / Fold change /veh LINC00158 (11744669_a_at) / RFU DUSP10 (11751237_a_at) / Fold change /veh DUSP10 (11751237_a_at) / RFU ID3 (11757404_x_at) / Fold change /veh ID3 (11757404_x_at) / RFU PLEKHG5 (11737974_s_at) / Fold change /veh PLEKHG5 (11737974_s_at) / RFU LRRC4B (11730491_at) / Fold change /veh LRRC4B (11730491_at) / RFU GIMAP4 (11747438_a_at) / Fold change /veh GIMAP4 (11747438_a_at) / RFU KRT8 (11758183_x_at) / Fold change /veh KRT8 (11758183_x_at) / RFU CNN1 (11734310_a_at) / Fold change /veh CNN1 (11734310_a_at) / RFU VPS37D (11726825_at) / Fold change /veh VPS37D (11726825_at) / RFU C10orf10 (11716522_x_at) / Fold change /veh C10orf10 (11716522_x_at) / RFU KIR2DL2 /// KIR2DL4 /// KIR2DL5A /// KIR2DL5B /// KIR2DS1 /// KIR2DS2 /// KIR2DS3 /// KIR2DS4 /// KIR3DL3 /// KIR3DL3 /// KIR3DS1 (11738374_at) / Fold change /veh KIR2DL2 /// KIR2DL4 /// KIR2DL5A /// KIR2DL5B /// KIR2DS1 /// KIR2DS2 /// KIR2DS3 /// KIR2DS4 /// KIR3DL3 /// KIR3DL3 /// KIR3DS1 (11738374_at) / RFU C1QL1 (11718748_at) / Fold change /veh C1QL1 (11718748_at) / RFU TMPRSS4 (11747572_a_at) / Fold change /veh TMPRSS4 (11747572_a_at) / RFU HAMP (11756126_x_at) / Fold change /veh HAMP (11756126_x_at) / RFU RNFT2 (11725882_a_at) / Fold change /veh RNFT2 (11725882_a_at) / RFU NR4A2 (11747474_a_at) / Fold change /veh NR4A2 (11747474_a_at) / RFU ABCC12 (11746883_a_at) / Fold change /veh ABCC12 (11746883_a_at) / RFU TMEM136 (11760407_x_at) / Fold change /veh TMEM136 (11760407_x_at) / RFU CLDN22 /// WWC2 (11732394_at) / Fold change /veh CLDN22 /// WWC2 (11732394_at) / RFU HLA-DPB1 (11760878_x_at) / Fold change /veh HLA-DPB1 (11760878_x_at) / RFU SPINT1 (11716480_a_at) / Fold change /veh SPINT1 (11716480_a_at) / RFU GAP43 (11754022_s_at) / Fold change /veh GAP43 (11754022_s_at) / RFU A4GNT (11735810_at) / Fold change /veh A4GNT (11735810_at) / RFU PRB3 (11715151_x_at) / Fold change /veh PRB3 (11715151_x_at) / RFU TUBB4B (11761932_at) / Fold change /veh TUBB4B (11761932_at) / RFU CAPN14 (11732068_a_at) / Fold change /veh CAPN14 (11732068_a_at) / RFU TMCC2 (11721928_a_at) / Fold change /veh TMCC2 (11721928_a_at) / RFU IRGQ (11745062_a_at) / Fold change /veh IRGQ (11745062_a_at) / RFU FAM174B (11720279_a_at) / Fold change /veh FAM174B (11720279_a_at) / RFU TMPRSS4 (11748680_a_at) / Fold change /veh TMPRSS4 (11748680_a_at) / RFU FAM212B (11763350_a_at) / Fold change /veh FAM212B (11763350_a_at) / RFU PLEKHG5 (11743358_a_at) / Fold change /veh PLEKHG5 (11743358_a_at) / RFU ZSCAN30 (11745921_a_at) / Fold change /veh ZSCAN30 (11745921_a_at) / RFU CMKLR1 (11741424_a_at) / Fold change /veh CMKLR1 (11741424_a_at) / RFU LOC101060620 /// MAPK8IP1 (11723275_at) / Fold change /veh LOC101060620 /// MAPK8IP1 (11723275_at) / RFU SPTSSB (11747773_x_at) / Fold change /veh SPTSSB (11747773_x_at) / RFU PRSS12 (11739890_at) / Fold change /veh PRSS12 (11739890_at) / RFU BIN1 (11741810_x_at) / Fold change /veh BIN1 (11741810_x_at) / RFU WNT11 (11732464_a_at) / Fold change /veh WNT11 (11732464_a_at) / RFU C10orf10 (11716521_a_at) / Fold change /veh C10orf10 (11716521_a_at) / RFU C5orf56 (11738089_at) / Fold change /veh C5orf56 (11738089_at) / RFU CYB561 (11721691_x_at) / Fold change /veh CYB561 (11721691_x_at) / RFU ANKRD19P (11752326_a_at) / Fold change /veh ANKRD19P (11752326_a_at) / RFU OR2T12 /// OR2T33 /// OR2T8 (11738714_s_at) / Fold change /veh OR2T12 /// OR2T33 /// OR2T8 (11738714_s_at) / RFU VCAN (11748164_a_at) / Fold change /veh VCAN (11748164_a_at) / RFU JSRP1 (11732532_at) / Fold change /veh JSRP1 (11732532_at) / RFU KRTAP10-11 (11738290_x_at) / Fold change /veh KRTAP10-11 (11738290_x_at) / RFU MYO3A (11730013_a_at) / Fold change /veh MYO3A (11730013_a_at) / RFU EBF3 (11725865_a_at) / Fold change /veh EBF3 (11725865_a_at) / RFU CAMK2N1 (11719241_x_at) / Fold change /veh CAMK2N1 (11719241_x_at) / RFU C5orf56 (11738088_a_at) / Fold change /veh C5orf56 (11738088_a_at) / RFU OLFML3 (11715873_a_at) / Fold change /veh OLFML3 (11715873_a_at) / RFU LOC100653217 /// NTM (11731650_a_at) / Fold change /veh LOC100653217 /// NTM (11731650_a_at) / RFU MAPK11 (11762145_a_at) / Fold change /veh MAPK11 (11762145_a_at) / RFU FIZ1 (11724087_x_at) / Fold change /veh FIZ1 (11724087_x_at) / RFU OASL (11726364_x_at) / Fold change /veh OASL (11726364_x_at) / RFU SOX15 (11748057_x_at) / Fold change /veh SOX15 (11748057_x_at) / RFU CD79A (11719716_a_at) / Fold change /veh CD79A (11719716_a_at) / RFU HIST1H1D (11736915_at) / Fold change /veh HIST1H1D (11736915_at) / RFU CASKIN2 (11723855_a_at) / Fold change /veh CASKIN2 (11723855_a_at) / RFU LOC730098 (11760151_x_at) / Fold change /veh LOC730098 (11760151_x_at) / RFU OR4N2 (11742367_at) / Fold change /veh OR4N2 (11742367_at) / RFU PRRT2 (11749266_a_at) / Fold change /veh PRRT2 (11749266_a_at) / RFU SNX32 (11753110_a_at) / Fold change /veh SNX32 (11753110_a_at) / RFU CDHR5 (11726645_a_at) / Fold change /veh CDHR5 (11726645_a_at) / RFU RCAN1 (11760418_a_at) / Fold change /veh RCAN1 (11760418_a_at) / RFU FAM167A (11723789_a_at) / Fold change /veh FAM167A (11723789_a_at) / RFU FAM26E (11764081_at) / Fold change /veh FAM26E (11764081_at) / RFU ISYNA1 (11749810_s_at) / Fold change /veh ISYNA1 (11749810_s_at) / RFU ACY1 (11761880_at) / Fold change /veh ACY1 (11761880_at) / RFU 11764098_at / Fold change /veh 11764098_at / RFU SAMD14 (11745864_x_at) / Fold change /veh SAMD14 (11745864_x_at) / RFU NPB (11741838_a_at) / Fold change /veh NPB (11741838_a_at) / RFU TMPRSS6 (11731388_a_at) / Fold change /veh TMPRSS6 (11731388_a_at) / RFU KRTAP10-2 (11738614_at) / Fold change /veh KRTAP10-2 (11738614_at) / RFU ARHGAP8 /// PRR5-ARHGAP8 (11727945_x_at) / Fold change /veh ARHGAP8 /// PRR5-ARHGAP8 (11727945_x_at) / RFU KRTAP5-7 /// NADSYN1 (11734609_at) / Fold change /veh KRTAP5-7 /// NADSYN1 (11734609_at) / RFU RASL12 (11751679_a_at) / Fold change /veh RASL12 (11751679_a_at) / RFU CDKN2B (11736163_a_at) / Fold change /veh CDKN2B (11736163_a_at) / RFU PRF1 (11729649_at) / Fold change /veh PRF1 (11729649_at) / RFU, ZNF638 /// ZNF638-IT1 / Fold change vs veh, ZNF638 /// ZNF638-IT1 / RFU, PANK3 / Fold change vs veh, PANK3 / RFU, SH3YL1 / Fold change vs veh, SH3YL1 / RFU, ZEB2 / Fold change vs veh, ZEB2 / RFU, NRIP1 / Fold change vs veh, NRIP1 / RFU, PTTG1IP / Fold change vs veh, PTTG1IP / RFU, CAPN2 / Fold change vs veh, CAPN2 / RFU, MED14 / Fold change vs veh, MED14 / RFU, SNORA58 / Fold change vs veh, SNORA58 / RFU, C1orf63 / Fold change vs veh, C1orf63 / RFU, LRRFIP1 / Fold change vs veh, LRRFIP1 / RFU, NDUFAF7 / Fold change vs veh, NDUFAF7 / RFU, SLC12A2 / Fold change vs veh, SLC12A2 / RFU, IBTK / Fold change vs veh, IBTK / RFU, ESF1 / Fold change vs veh, ESF1 / Fold change vs veh, TMEM50B / RFU, TAOK1 / Fold change vs veh, TAOK1 / RFU, ACBD3 / Fold change vs veh, ACBD3 / RFU, TMA16 / Fold change vs veh, TMA16 / RFU, RWDD3 / Fold change vs veh, RWDD3 / RFU, BCAT1 / Fold change vs veh, BCAT1 / RFU, EDEM3 / Fold change vs veh, EDEM3 / RFU, TMEM33 / Fold change vs veh, TMEM33 / RFU, WDR75 / Fold change vs veh, WDR75 / RFU, AHCTF1 / Fold change vs veh, AHCTF1 / RFU, TFRC / Fold change vs veh, TFRC / RFU, ZDHHC17 / Fold change vs veh, ZDHHC17 / RFU, NOM1 / Fold change vs veh, NOM1 / RFU, ARL8B / Fold change vs veh, ARL8B / RFU, ZBTB11 / Fold change vs veh, ZBTB11 / RFU, TAMM41 / Fold change vs veh, TAMM41 / RFU, KIAA1704 /// LOC100996395 / Fold change vs veh, KIAA1704 /// LOC100996395 / RFU, ING1 / Fold change vs veh, ING1 / RFU, TRMT61B / Fold change vs veh, TRMT61B / RFU, FUBP3 / Fold change vs veh, FUBP3 / RFU, TP53 / Fold change vs veh, TP53 / RFU, TNKS2 / Fold change vs veh, TNKS2 / RFU, ZFP14 / Fold change vs veh, ZFP14 / RFU, ACTR2 / Fold change vs veh, ACTR2 / RFU, PPP3R1 / Fold change vs veh, PPP3R1 / RFU, PIK3R1 / Fold change vs veh, PIK3R1 / RFU, HNRNPA1 / Fold change vs veh, HNRNPA1 / RFU, RNF170 / Fold change vs veh, RNF170 / RFU, ZNF28 / Fold change vs veh, ZNF28 / RFU, RNGTT / Fold change vs veh, RNGTT / RFU, OGT / Fold change vs veh, OGT / RFU, BRD1 / Fold change vs veh, BRD1 / RFU, MARS / Fold change vs veh, MARS / RFU, ZNF655 / Fold change vs veh, ZNF655 / RFU, FAHD1 / Fold change vs veh, FAHD1 / RFU, BDP1 / Fold change vs veh, BDP1 / RFU, LRRCC1 / Fold change vs veh, LRRCC1 / RFU, ARID1A / Fold change vs veh, ARID1A / RFU, ZNF146 / Fold change vs veh, ZNF146 / RFU, ZNF330 / Fold change vs veh, ZNF330 / RFU, GPN3 / Fold change vs veh, GPN3 / RFU, C9orf123 / Fold change vs veh, C9orf123 / RFU, N4BP2L2 / Fold change vs veh, N4BP2L2 / RFU, ARFIP1 / Fold change vs veh, ARFIP1 / RFU, FAM179B / Fold change vs veh, FAM179B / RFU, BCL10 / Fold change vs veh, BCL10 / RFU, UHRF1BP1L / Fold change vs veh, UHRF1BP1L / RFU, BET1 / Fold change vs veh, BET1 / RFU, CNOT2 / Fold change vs veh, CNOT2 / RFU, ZNF268 / Fold change vs veh, ZNF268 / Fold change vs veh, ZNF507 / RFU, DGCR2 / Fold change vs veh, DGCR2 / RFU, WDSUB1 / Fold change vs veh, WDSUB1 / Fold change vs veh, HSP90B1 /// MIR3652 / RFU, ADSS / Fold change vs veh, ADSS / RFU, GK / Fold change vs veh, GK / RFU, ZNF148 / Fold change vs veh, ZNF148 / RFU, TAF9 / Fold change vs veh, TAF9 / RFU, SLC1A5 / Fold change vs veh, SLC1A5 / RFU, SLMO2 / Fold change vs veh, SLMO2 / RFU, ABCC4 / Fold change vs veh, ABCC4 / RFU, LOC101060439 /// RAP1B / Fold change vs veh, LOC101060439 /// RAP1B / RFU, RFX7 / Fold change vs veh, RFX7 / RFU, GTPBP10 / Fold change vs veh, GTPBP10 / RFU, CNEP1R1 / Fold change vs veh, CNEP1R1 / RFU, BIVM-ERCC5 /// ERCC5 / Fold change vs veh, BIVM-ERCC5 /// ERCC5 / RFU, ILF3 / Fold change vs veh, ILF3 / RFU 11762660_at / Fold change /veh 11762660_at / RFU VCAN (11757783_s_at) / Fold change /veh VCAN (11757783_s_at) / RFU DDX43 (11728927_at) / Fold change /veh DDX43 (11728927_at) / RFU KRT8 (11758188_x_at) / Fold change /veh KRT8 (11758188_x_at) / RFU NKD1 (11759106_at) / Fold change /veh NKD1 (11759106_at) / RFU SRD5A1 (11742802_a_at) / Fold change /veh SRD5A1 (11742802_a_at) / RFU TPSAB1 /// TPSB2 (11721975_s_at) / Fold change /veh TPSAB1 /// TPSB2 (11721975_s_at) / RFU GSTM3 (11746129_a_at) / Fold change /veh GSTM3 (11746129_a_at) / RFU IL23R (11737362_x_at) / Fold change /veh IL23R (11737362_x_at) / RFU TMEM51 (11727254_a_at) / Fold change /veh TMEM51 (11727254_a_at) / RFU PIWIL2 (11732686_x_at) / Fold change /veh PIWIL2 (11732686_x_at) / RFU ORM1 (11744905_x_at) / Fold change /veh ORM1 (11744905_x_at) / RFU CCDC152 (11743942_at) / Fold change /veh CCDC152 (11743942_at) / RFU ECM1 (11717891_a_at) / Fold change /veh ECM1 (11717891_a_at) / RFU IL23R (11748794_a_at) / Fold change /veh IL23R (11748794_a_at) / RFU TNFAIP8L3 (11732012_x_at) / Fold change /veh TNFAIP8L3 (11732012_x_at) / RFU MBOAT4 (11741988_at) / Fold change /veh MBOAT4 (11741988_at) / RFU 11764193_at / Fold change /veh 11764193_at / RFU TMEM53 (11763286_at) / Fold change /veh TMEM53 (11763286_at) / RFU MAGEB2 (11727129_at) / Fold change /veh MAGEB2 (11727129_at) / RFU TMEM200A (11744735_a_at) / Fold change /veh TMEM200A (11744735_a_at) / RFU CCDC152 (11751479_a_at) / Fold change /veh CCDC152 (11751479_a_at) / RFU FAM211A (11726209_a_at) / Fold change /veh FAM211A (11726209_a_at) / RFU RGS16 (11746705_a_at) / Fold change /veh RGS16 (11746705_a_at) / RFU VCAN (11755009_s_at) / Fold change /veh VCAN (11755009_s_at) / RFU RHOB (11743442_s_at) / Fold change /veh RHOB (11743442_s_at) / RFU RGS16 (11720943_a_at) / Fold change /veh RGS16 (11720943_a_at) / RFU RGS16 (11720944_at) / Fold change /veh RGS16 (11720944_at) / RFU, VPS4B / Fold change vs veh, VPS4B / RFU, CREB1 / Fold change vs veh, CREB1 / RFU, DNAJC13 / Fold change vs veh, DNAJC13 / RFU, GNAQ / Fold change vs veh, GNAQ / RFU, CDK5R1 / Fold change vs veh, CDK5R1 / RFU, ZRANB3 / Fold change vs veh, ZRANB3 / RFU, CUL4A / Fold change vs veh, CUL4A / RFU, CCNY / Fold change vs veh, CCNY / RFU, UFL1 / Fold change vs veh, UFL1 / RFU, COG3 / Fold change vs veh, COG3 / RFU, DIAPH2 / Fold change vs veh, DIAPH2 / RFU, SKA2 / Fold change vs veh, SKA2 / RFU, AFF3 / Fold change vs veh, AFF3 / RFU, LMF1 / Fold change vs veh, LMF1 / RFU, IPO11 / Fold change vs veh, IPO11 / RFU, DFFB / Fold change vs veh, DFFB / RFU, FOXP1 / Fold change vs veh, FOXP1 / RFU, CARD8 / Fold change vs veh, CARD8 / RFU, STRN3 / Fold change vs veh, STRN3 / RFU, ADK / Fold change vs veh, ADK / RFU, RASSF2 / Fold change vs veh, RASSF2 / RFU, WIPF1 / Fold change vs veh, WIPF1 / RFU, LARP1B / Fold change vs veh, LARP1B / RFU, RASA1 / Fold change vs veh, RASA1 / RFU, RB1 / Fold change vs veh, RB1 / RFU, PPFIA1 / Fold change vs veh, PPFIA1 / RFU, MAT2A / Fold change vs veh, MAT2A / RFU, CCT5 / Fold change vs veh, CCT5 / RFU, WDR92 / Fold change vs veh, WDR92 / RFU, CUX1 / Fold change vs veh, CUX1 / RFU, TTC7A / Fold change vs veh, TTC7A / RFU, TMEM135 / Fold change vs veh, TMEM135 / RFU, DEPTOR / Fold change vs veh, DEPTOR / RFU, CPM / Fold change vs veh, CPM / RFU, DNAJB6 / Fold change vs veh, DNAJB6 / RFU, CACNA2D3 / Fold change vs veh, CACNA2D3 / RFU, DTX4 / Fold change vs veh, DTX4 / RFU, TFCP2 / Fold change vs veh, TFCP2 / RFU, GMCL1 /// GMCL1P1 / Fold change vs veh, GMCL1 /// GMCL1P1 / RFU, AEBP2 / Fold change vs veh, AEBP2 / RFU, SNHG1 /// SNORD22 /// SNORD25 /// SNORD26 /// SNORD27 /// SNORD28 /// SNORD29 /// SNORD31 / Fold change vs veh, SNHG1 /// SNORD22 /// SNORD25 /// SNORD26 /// SNORD27 /// SNORD28 /// SNORD29 /// SNORD31 / Fold change (Aza/veh), C12orf56 (ProbeSet 11735607_a_at) / Fold change (ACY-1035/veh), C12orf56 (ProbeSet 11735607_a_at) / Fold change (Aza/veh), FGFR1OP (ProbeSet 11751329_s_at) / Fold change (ACY-1035/veh), FGFR1OP (ProbeSet 11751329_s_at) / Fold change (Aza/veh), VPS36 (ProbeSet 11739960_a_at) / Fold change (ACY-1035/veh), VPS36 (ProbeSet 11739960_a_at) / RFU SYPL1 (11715823_x_at) / Fold change /veh SYPL1 (11715823_x_at) / RFU IGFBP7 (11715501_s_at) / Fold change /veh IGFBP7 (11715501_s_at) / RFU REEP3 (11722064_at) / Fold change /veh REEP3 (11722064_at) / RFU IGLL1 (11728026_x_at) / Fold change /veh IGLL1 (11728026_x_at): dose or concentration left out as unconfirmed", "conditions": "ProbeSet 11719632_a_at; LIST B"}
{"molecule": "Nc1ncn([C@@H]2O[C@H](CO)[C@@H](O)[C@H]2O)c(=O)n1", "note": "[azacitidine]", "values": [{"measurement": "RFU, ABCC4", "result": 39.11, "unit": "RFU"}]}
